Measured values: patent US20080255053A1, “METHOD FOR THE THERAPEUTIC MANAGEMENT OF ENDOMETRIOSIS” (Aeterna Zentaris GmbH, priority 1999, published 2008)
Non-standard residues stand in square brackets, D forms with d. Residues, ends and D or L forms follow the SMILES beside them. dPhe(4-Cl) = N[C@H](Cc1ccc(Cl)cc1)C(=O)O; d2Nal = N[C@H](Cc1ccc2ccccc2c1)C(=O)O; dCit = NC(=O)NCCC[C@@H](N)C(=O)O; d3Pal = N[C@H](Cc1cccnc1)C(=O)O

System: patients with confirmed endometriosis
Assay: Weekly 3 mg Cetrorelix for 8 weeks in patients with confirmed endometriosis
Format: in vivo, human
Settings: 3 mg weekly for 8 weeks

SMILES: CC(=O)N[C@H](Cc1ccc2ccccc2c1)C(=O)N[C@H](Cc1ccc(Cl)cc1)C(=O)N[C@H](Cc1cccnc1)C(=O)N[C@@H](CO)C(=O)N[C@@H](Cc1ccc(O)cc1)C(=O)N[C@H](CCCNC(N)=O)C(=O)N[C@@H](CC(C)C)C(=O)N[C@@H](CCCNC(=N)N)C(=O)N1CCC[C@H]1C(=O)N[C@H](C)C(N)=O [Cetrorelix acetate] (Ac-[d2Nal][dPhe(4-Cl)][d3Pal]SY[dCit]LRP[dA]-NH2)
- hot flushes or other hormonal (estradiol) withdrawal symptoms: avoiding any hot flushes or other withdrawal symptoms
- proliferation of the endometrium at the end of treatment (histological biopsies): no proliferation of the endometrium
- hot flushes or other hormonal (estradiol) withdrawal symptoms (listed as Cetrorelix): without any signs of estradiol withdrawal symptoms
- proliferation of the endometrium at the end of treatment (histological biopsies) (listed as Cetrorelix): without proliferation of the endometrium
